Test system: C57BL/6 male mice
Test: In vivo delivery study of lipid nucleic acid mixture (oral gavage, RT-qPCR of PGY-sRNA-26 in tissues)
Design: species or system mouse
Conditions: for oral delivery of single-stranded sRNA nucleic acids into mouse blood / oral delivery of single-stranded sRNA nucleic acids into mouse brain tissue / oral delivery of single-stranded sRNA nucleic acids into mouse femur / oral delivery of single-stranded sRNA nucleic acids into mouse intestinal tissue / oral delivery of single-stranded sRNA nucleic acids into mouse liver tissue / oral delivery of single-stranded sRNA nucleic acids into mouse lung tissue / oral delivery of single-stranded sRNA nucleic acids into mouse spleen tissue / oral delivery of single-stranded sRNA nucleic acids into mouse stomach tissue / oral delivery of single-stranded sRNA nucleic acids into mouse heart tissue / oral delivery of single-stranded sRNA nucleic acids into mouse kidney tissue / oral delivery of single-stranded sRNA nucleic acids into mouse pancreatic tissue: 100 μg lipid:10 nmol PGY-sRNA-26, sampled after 12 hours; for oral delivery of single-stranded sRNA nucleic acids into mouse intestinal tissue: intestine; for oral delivery of single-stranded sRNA nucleic acids into mouse heart tissue: vs free uptake group; for oral delivery of single-stranded sRNA nucleic acids into mouse pancreatic tissue: pancreas; for overall delivery efficacy: delivering nucleic acids into each tissue and blood tested: 100 μg lipid:10 nmol PGY-sRNA-26, all tissues and blood tested
In short: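 Stem-loop RT and SYBR qPCR, normalized to U6, measured PGY-sRNA-26 in blood and organs 12 h after gavage. Dosing was 10 nmol sRNA with 100 μg lipid, pre-mixed and heated 15 min at 90 °C, in 12-h-fasted mice, against saline and free-sRNA groups.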

Row | SMILES | oral delivery of single-stranded sRNA nucleic acids into mouse blood | oral delivery of single-stranded sRNA nucleic acids into mouse brain tissue | oral delivery of single-stranded sRNA nucleic acids into mouse femur | oral delivery of single-stranded sRNA nucleic acids into mouse intestinal tissue | oral delivery of single-stranded sRNA nucleic acids into mouse liver tissue | oral delivery of single-stranded sRNA nucleic acids into mouse lung tissue | oral delivery of single-stranded sRNA nucleic acids into mouse spleen tissue | oral delivery of single-stranded sRNA nucleic acids into mouse stomach tissue | oral delivery of single-stranded sRNA nucleic acids into mouse heart tissue | oral delivery of single-stranded sRNA nucleic acids into mouse kidney tissue | oral delivery of single-stranded sRNA nucleic acids into mouse pancreatic tissue | overall delivery efficacy: delivering nucleic acids into each tissue and blood tested
1 | CCCC(=O)CC(=O)N[C@H]1CCOC1=O [Lipid 622, 3-oxo-N-[(3S)-2-oxooxolan-3-yl]hexanamide] | can effectively orally deliver | can effectively orally deliver | can effectively orally deliver | can effectively orally deliver | can effectively orally deliver | can effectively orally deliver | can effectively orally deliver | can effectively orally deliver |  |  |  | 
2 | CCCCCCOC(=O)CCC [Lipid 614, hexyl butanoate] | can effectively orally deliver | can effectively orally deliver | can effectively orally deliver | can effectively orally deliver | can effectively orally deliver | can effectively orally deliver | can effectively orally deliver |  | can effectively orally deliver |  |  | 
3 | CCCCCCC(=O)OC/C=C(\C)CC/C=C(\C)CCC=C(C)C [Lipid 809, [(2E,6E)-3,7,11-trimethyldodeca-2,6,10-trienyl]heptanoate] | can effectively orally deliver | can effectively orally deliver | can effectively orally deliver | can effectively orally deliver | can effectively orally deliver | can effectively orally deliver | can effectively orally deliver | can effectively orally deliver | can effectively orally deliver | can effectively orally deliver | can effectively orally deliver | 
4 | CC(C(=O)O)C(=O)O [Lipid 596, 2-methylpropanedioic acid] | can effectively orally deliver | can effectively orally deliver | can effectively orally deliver | can effectively orally deliver | can effectively orally deliver | can effectively orally deliver | can effectively orally deliver | can effectively orally deliver | can effectively orally deliver | can effectively orally deliver |  | best delivery efficacy
5 | CCCCCCCC(C)C [Lipid 528, 2-methylnonane] | can effectively orally deliver | can effectively orally deliver | can effectively orally deliver | can effectively orally deliver | can effectively orally deliver | can effectively orally deliver | can effectively orally deliver | can effectively orally deliver | can effectively orally deliver | can effectively orally deliver |  | best delivery efficacy
6 | CCCCCCCCCCCC(C)O (stereo not shown) [Lipid 505, tridecan-2-ol] | can effectively orally deliver | can effectively orally deliver |  |  | can effectively orally deliver |  |  | can effectively orally deliver |  |  |  | 
7 | CC/C=C\C/C=C\C/C=C\CCCCCCCC(=O)OCCCCCCCCCCCC [Lipid 805, dodecyl (9Z,12Z,15Z)-octadeca-9,12,15-trienoate] | can effectively orally deliver | can effectively orally deliver | can effectively orally deliver | can effectively orally deliver | can effectively orally deliver | can effectively orally deliver | can effectively orally deliver | can effectively orally deliver | can effectively orally deliver | can effectively orally deliver | can effectively orally deliver | 
8 | CCCCCCCCCC(=O)OC/C=C(\C)CC/C=C(\C)CCC=C(C)C [Lipid 803, [(2E,6E)-3,7,11-trimethyldodeca-2,6,10-trienyl]decanoate] | can effectively orally deliver | can effectively orally deliver | can effectively orally deliver | can effectively orally deliver | can effectively orally deliver | can effectively orally deliver | can effectively orally deliver | can effectively orally deliver | can effectively orally deliver | can effectively orally deliver | can effectively orally deliver | best delivery efficacy
9 | CCCCCCCCCCCC(N)=O [Lipid 611, dodecanamide] |  |  | can effectively orally deliver |  |  |  | can effectively orally deliver | can effectively orally deliver |  |  |  | 
10 | CCCCC/C=C\C/C=C\CCCCCCCC(=O)OC(CC)C(C)CCC (stereo not shown) [Lipid 828, 4-methylheptan-3-yl (9Z,12Z)-octadeca-9,12-dienoate] | can effectively orally deliver | can effectively orally deliver | can effectively orally deliver | can effectively orally deliver | can effectively orally deliver | can effectively orally deliver | can effectively orally deliver | can effectively orally deliver | can effectively orally deliver | can effectively orally deliver | can effectively orally deliver | 
11 | C=CC(=O)CCCCC [Lipid 619, oct-1-en-3-one] | can effectively orally deliver | can effectively orally deliver | can effectively orally deliver | can effectively orally deliver | can effectively orally deliver |  | can effectively orally deliver | can effectively orally deliver |  | can effectively orally deliver |  | 
12 | CC/C=C/C=C/C=O [Lipid 618, (2E,4E)-hepta-2,4-dienal] |  | can effectively orally deliver | can effectively orally deliver | can effectively orally deliver | can effectively orally deliver | can effectively orally deliver |  |  |  |  |  | 
